We go through 59 molecules from PubChem BioAssay AID2141 (Sanford-Burnham Center for Chemical Genomics, 2009).

The source made the active and inactive calls. The rule behind the calls is not given here.

In this assay the target is E3 ubiquitin-protein ligase SIAH1 (Homo sapiens) (UniProt Q8IUQ4). The experiment in a line: inhibitors of Siah-1 ligand interaction – biochemical, TR-FRET, dose response (AID 2141). The note with it: TR-FRET biochemical assay, Siah-1 binding. (In general: In TR-FRET formats the signal depends on donor and acceptor labels being close together.)
Broadly, the IC50 is the concentration that inhibits the measured activity by half. For the molecule `Nc1c(C(=O)NCc2ccco2)c2nc3ccccc3nc2n1Cc1ccccc1`, the IC50 was under 1.56 µM.
For `COC(=O)c1c(C(=O)OC)c2cccc3cc(-c4ccccc4)c4ccc1c4n32`, the IC50 was 14.6 µM.
In the case of `O=C(Nc1ccc(Br)cc1)c1ccc(N2C(=O)C3CC=CCC3C2=O)cc1` (centres undefined) it was 4.27 µM; in that of `COc1cc(CNc2ccc(O)cc2)cc(Br)c1OCc1ccccc1F`, 4.66 µM.
In the case of `CCCCn1c(NS(=O)(=O)c2ccccc2)c(S(=O)(=O)c2ccc(C)cc2)c2nc3ccccc3nc21` it was 1.6 µM; in that of `O=C(Nc1cc([N+](=O)[O-])ccc1N1CCOCC1)c1cccs1`, > 200 µM (inactive).
For the molecule `CC1=CC(C)(C)N2C(=O)C(=Nc3ccc(O)cc3)c3cccc1c32`, the half-inhibitory concentration (IC50) was 5.61 µM.
In the case of `Cc1cc(C)n2ncc(C(=O)Nc3ccc4c(c3)OCO4)c2n1` it was “inactive”; in that of `O=C(Nc1ccc(Cl)cc1)c1ccc(S(=O)(=O)N2CCOCC2)cc1`, > 200 µM (inactive).
Then `Nc1ccc(S(=O)(=O)Nc2ccc(S(N)(=O)=O)cc2)cc1`, with > 200 µM (inactive).
`CCCCn1c(NC(=O)c2ccco2)c(S(=O)(=O)c2ccc(C)cc2)c2nc3ccccc3nc21`: the IC50 was > 200 µM (inactive).
Then `CCCCNc1c2c3c(cccc3n(C)c1=O)C(=O)c1ccccc1-2`, with > 200 µM (inactive); and `N#C/C(=C\c1c(F)cccc1Cl)C(=O)NC1CC1`, with > 200 µM (inactive); and `Cc1ccn2c(C(=O)CSc3ccc(Cl)cc3Cl)c(C)nc2c1`, with > 200 µM (inactive).
Then `N#Cc1c(NC(=O)c2ccc(Br)o2)n(-c2ccccc2)c2nc3ccccc3nc12`, with 3.73 µM; and `CC1CCN(C(=O)C2CCC(C)(C(=O)O)C2(C)C)CC1` (centres undefined), with > 200 µM (inactive); and `CCN(CC)CCOC(=O)c1ccc(N/C=C(/C#N)c2nc(-c3ccc(OC)c(OC)c3)cs2)cc1`, with under 1.56 µM.
In the case of `COCCOC(=O)c1sc(=S)n(CCOC)c1N`, the IC50 is 10.6 µM.
As to `CCOC(=O)/C(C#N)=c1/s/c(=C2\C=Cc3ccccc3N2CC)c(=O)n1CC`, the IC50 was > 200 µM (inactive).
Then `Cc1ccc(S(=O)(=O)NN=C2C3CC4CC(C3)CC2C4)cc1[N+](=O)[O-]`, with > 200 µM (inactive).
`COc1ccc(C(C(=O)NCc2ccccc2)N(Cc2ccco2)C(=O)c2cnccn2)cc1` (centres undefined): the IC50 is > 200 µM (inactive).
As for `Cc1c(Cc2ccccc2)c(=O)oc2c(C)c(OCC(=O)N[C@@H](Cc3ccccc3)C(=O)O)ccc12`, the half-maximal inhibitory concentration (IC50) is 4.38 µM.
Then `O=c1[nH]c2ccc(S(=O)(=O)N3CCCCC3)cc2s1`, with > 200 µM (inactive); and `COCCCNc1c2c3c(cccc3[nH]c1=O)C(=O)c1ccccc1-2`, with > 200 µM (inactive); and `CC(=O)Nc1ccc(N=Cc2c(O)c(C(=O)Nc3ccccc3)cc3ccccc23)cc1`, with > 200 µM (inactive).
With `COc1cc(NS(=O)(=O)c2ccc(NC(=S)NC(=O)/C=C/c3ccc(F)cc3)cc2)ncn1`, the IC50 was > 200 µM (inactive).
Turning to `CCCCn1c(NC(=O)c2ccc(Br)o2)c(C(=O)OCC)c2nc3ccccc3nc21`, the IC50 was 2.04 µM.
In the case of `CC1CCN(S(=O)(=O)c2nnc(NC(=O)c3cccc(Cl)c3)s2)CC1` it was > 200 µM (inactive).
Take `COc1ccc(CCNC(=O)c2ccc(S(=O)(=O)N(C)c3ccccc3)cc2)cc1OC`: the IC50 is > 200 µM (inactive).
Consider `O=C(O)c1cc(O)c2c(c1)C(=O)c1cccc(O)c1C2=O`, for which the IC50 was > 200 µM (inactive).
Take `O=C1CCCC(O)=C1N=Nc1ccc(C(=O)O)cc1`: the IC50 was under 1.56 µM.
Take `CCC(C)[C@H](NC(=O)N1CCn2c1nc1ccccc12)C(=O)NCCc1ccc(OC)c(OC)c1` (some centres undefined): the IC50 was > 200 µM (inactive).
Consider `O=C(N/N=C/c1ccc(OC(=O)c2cccs2)cc1)c1cccc(F)c1`, for which the IC50 is 1.79 µM.
`COC(=O)c1ccc2c(c1)C(C)(C)C(/C=C/c1ccccc1O)=[N+]2C`: the IC50 is > 200 µM (inactive).
In the case of `CS(=O)(=O)N1CCN(c2ccc([N+](=O)[O-])c(SCc3ccco3)c2)CC1` it was > 200 µM (inactive).
In the case of `O=c1[nH]c(-c2ccc(F)cc2)nc2c1sc(=S)n2-c1ccccc1` it was > 200 µM (inactive); in that of `O=C(Nc1ccc(S(=O)(=O)N2CCOCC2)cc1)c1ccc(=O)[nH]c1`, 1.89 µM.
Then `COCCn1nnnc1C(c1cc2ccc(OC)cc2[nH]c1=O)N1CCc2ccccc2C1` (centres undefined), with 11.8 µM; and `Cc1c(C(=O)O)sc2nc(CSc3ncc(C(F)(F)F)cc3Cl)[nH]c(=O)c12`, with 7.65 µM.
Turning to `NS(=O)(=O)c1ccc(NC(=O)c2cccc(N3C(=O)c4ccccc4C3=O)c2)cc1`, the IC50 is 10.6 µM.
Then `CCC1=Nc2cc(C(=O)O)ccc2Sc2ccccc21`, with “inactive”.
Then `O=S(=O)(O)c1cc(O)c2c(O)c(N=Nc3cc(Cl)ccc3O)c(S(=O)(=O)O)cc2c1`, with 2.14 µM; and `O=C(O)CCCCN1C(=O)/C(=C\c2ccc(OCc3ccccc3)c(OCc3ccccc3)c2)SC1=S`, with 4.03 µM; and `C=C(C)Cn1c(N2CCN(CC)CC2)nc2c1c(=O)[nH]c(=O)n2C`, with > 200 µM (inactive).
Then `COc1ccc(-c2cnnn2-c2ccc(N)cc2)cc1OC`, with > 200 µM (inactive); and `Cc1ccc(NC(=O)CCC(=O)NNC(=O)c2ccccc2[N+](=O)[O-])c(C)c1`, with > 200 µM (inactive); and `CCN(CC)c1ccc(/C=c2\sc3nnc(-c4ccccc4Cl)n3c2=O)cc1`, with > 200 µM (inactive).
Consider `Cc1cc(C)c(C#N)c(Nc2ccccc2C)n1`, for which the IC50 is > 200 µM (inactive).
Then `Cc1cc2cc(CNC(=O)c3ccc(S(=O)(=O)N4CCCCC4)cc3)ccc2n1C`, with 6.45 µM; and `Fc1ccc(/C=N/NC(=S)Nc2cccnc2)cc1F`, with “inactive”; and `O=C(O)CCN1C(=O)/C(=C/c2cn(-c3ccccc3)nc2-c2cccs2)SC1=S`, with “inactive”.
In the case of `CCNc1ccc(C(=O)O)cc1N` it was 3.96 µM; in that of `Cc1ccc(OCCCN2CCOCC2)cc1`, > 200 µM (inactive); in that of `O=c1[nH]n(-c2ccc([N+](=O)[O-])cc2)c(=O)c2ccccc12`, 11.2 µM.
In the case of `CN1/C(=C\C=C\C2=[N+](C)c3ccc4ccccc4c3C2(C)C)C(C)(C)c2ccccc21` it was > 200 µM (inactive); in that of `c1ccc(C(c2ccccc2)N2CCN(C(c3ccccn3)c3nnnn3C3CCCC3)CC2)cc1` (centres undefined), > 200 µM (inactive); in that of `Cc1coc2c(C)c3oc(=O)c(CCC(=O)N[C@@H](C)C(=O)N[C@@H](Cc4ccccc4)C(=O)O)c(C)c3cc12`, 11.4 µM.
Take `Cc1ccc(-n2cccn2)c([C@@H]2C[C@H]3CN(C)C(=O)[C@]34CCCN24)c1`: the IC50 was > 200 µM (inactive).
Then `CCOC(=O)C1=C(C)N=c2s/c(=C\c3ccc(OCC(=O)O)cc3)c(=O)n2C1c1ccc(Cl)cc1` (centres undefined), with > 200 µM (inactive).
